Target: T1, hCRTH2 (Homo sapiens, UniProt Q9Y5Y4)
T1 construct: expressed in transfected cells; host or cells: HEK (human embryonic kidney) cells expressing hCRTH2; membrane preparation
T1 sequence (Q9Y5Y4 1-395): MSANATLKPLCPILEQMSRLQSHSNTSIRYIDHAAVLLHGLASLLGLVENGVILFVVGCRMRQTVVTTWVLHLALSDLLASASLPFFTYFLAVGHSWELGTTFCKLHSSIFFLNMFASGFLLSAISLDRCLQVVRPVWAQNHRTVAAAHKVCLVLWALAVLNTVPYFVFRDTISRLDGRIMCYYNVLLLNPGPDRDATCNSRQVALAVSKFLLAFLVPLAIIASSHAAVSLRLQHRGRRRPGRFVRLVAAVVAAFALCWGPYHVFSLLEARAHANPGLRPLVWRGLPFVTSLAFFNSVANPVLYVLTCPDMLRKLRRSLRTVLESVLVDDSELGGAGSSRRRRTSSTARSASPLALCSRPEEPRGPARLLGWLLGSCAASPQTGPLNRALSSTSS
Assay: Radioligand binding assay ([3H]PGD2 competition, HEK-hCRTH2 membranes)
Conditions: [3H]PGD2 competition, Table B
Summary of the method: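 Displacement of 3.0 nM [3H]PGD2 from human CRTH2 expressed in HEK membranes was measured at room temperature over 60 min. Unlabelled PGD2 at 10 μM gave non-specific binding.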

Row | SMILES | Ki
1 | O=C(O)CCCCc1nc2cc(C(=O)N[C@@H]3COc4ccccc43)ccc2nc1-c1ccccc1 [compound 573, (S)-5-(7-((2,3-dihydrobenzofuran-3-yl)carbamoyl)-3-phenylquinoxalin-2-yl)pentanoic acid] | 2.1 to 20 nM
2 | O=C(O)CCCCc1nc2cc(C(=O)N[C@H]3COc4ccccc43)ccc2nc1-c1ccccc1 [compound 574, (R)-5-(7-((2,3-dihydrobenzofuran-3-yl)carbamoyl)-3-phenylquinoxalin-2-yl)pentanoic acid] | 2.1 to 20 nM
3 | CS(=O)(=O)N1CCC(NC(=O)c2ccc3nc(-c4ccccc4)c(CCCCC(=O)O)nc3c2)c2ccccc21 (centres unmarked) [compound 575, 5-(7-((1-(methylsulfonyl)-1,2,3,4-tetrahydroquinolin-4-yl)carbamoyl)-3-phenylquinoxalin-2-yl)pentanoic acid] | 0.1 to 2 nM
4 | O=C(O)CCCCc1nc2cc(C(=O)NC3CC(=O)Nc4ccccc43)ccc2nc1-c1ccccc1 (centres unmarked) [compound 576, 5-(7-((2-oxo-1,2,3,4-tetrahydroquinolin-4-yl)carbamoyl)-3-phenylquinoxalin-2-yl)pentanoic acid] | 2.1 to 20 nM
5 | O=C(O)CCCCc1nc2cc(C(=O)N3CC[C@H](c4ccc(F)cc4)C3)ccc2nc1-c1ccc(Cl)cc1 [compound 577, (R)-5-(3-(4-chlorophenyl)-7-(3-(4-fluorophenyl)pyrrolidine-1-carbonyl)quinoxalin-2-yl)pentanoic acid] | 0.1 to 2 nM
6 | O=C(O)CCCCc1nc2cc(C(=O)NC3CCCOc4ccccc43)ccc2nc1-c1ccc(Cl)cc1 (centres unmarked) [compound 579, 5-(3-(4-chlorophenyl)-7-((2,3,4,5-tetralaydrobenzo[b]oxepin-5-yl)carbamoyl)quinoxalin-2-yl)pentanoic acid] | 2.1 to 20 nM
7 | O=C(O)CCCCc1nc2cc(C(=O)N[C@H]3COc4ccccc43)ccc2nc1-c1ccc(Cl)cc1 [compound 580, (R)-5-(3-(4-chlorophenyl)-7-((2,3-dihydrobenzofuran-3-yl)carbamoyl)quinoxalin-2-yl)pentanoic acid] | 0.1 to 2 nM
8 | CC1(C)CC(NC(=O)c2ccc3nc(-c4ccc(Cl)cc4)c(CCCCC(=O)O)nc3c2)c2ccccc2O1 (centres unmarked) [compound 582, 5-(3-(4-chlorophenyl)-7-((2,2-dimethylchroman-4-yl)carbamoyl)quinoxalin-2-yl)pentanoic acid] | 0.1 to 2 nM
9 | O=C(O)CCCCc1nc2cc(C(=O)N3CCC4(CCCc5ccccc54)C3)ccc2nc1-c1ccc(Cl)cc1 (centres unmarked) [compound 583, 5-(3-(4-chlorophenyl)-7-(3,4-dihydro-2H-spiro [naphthalene-1,3′-pyrrolidin]-1′-ylcarbonyl)quinoxalin-2-yl)pentanoic acid] | 0.1 to 2 nM
10 | O=C(O)CCCCc1nc2cc(C(=O)NC3C(=O)Nc4ccccc43)ccc2nc1-c1ccc(Cl)cc1 (centres unmarked) [compound 584, 5-(3-(4-chlorophenyl)-7-((2-oxoindolin-3-yl)carbamoyl)quinoxalin-2-yl)pentanoic acid] | 2.1 to 20 nM
11 | COc1ccc2c(c1)CCC[C@H]2NC(=O)c1ccc2nc(-c3ccc(F)cc3)c(CCCC(F)(F)C(=O)O)nc2c1 [compound 589, (R)-2,2-difluoro-5-(3-(4-fluorophenyl)-7-((6-methoxy-1,2,3,4-tetrahydro-naphthalen-1-yl)carbamoyl)quinoxalin-2-yl)pentanoic acid] | 20.1 to 200 nM
12 | O=C(O)CCCCc1nc2cc(C(=O)N3CCN(C(=O)OCc4ccccc4)CC3)ccc2nc1-c1ccc(Cl)cc1 [compound 590, 5-(7-(4-((benzyloxy)carbonyl)piperazine-1-carbonyl)-3-(4-chlorophenyl)quinoxalin-2-yl)pentanoic acid] | 2.1 to 20 nM
13 | O=C(O)CCCCc1nc2cc(C(=O)N3CCCN(Cc4ccccc4)CC3)ccc2nc1-c1ccc(Cl)cc1 [compound 591, 5-(7-(4-benzyl-1,4-diazepane-1-carbonyl)-3-(4-chlorophenyl)quinoxalin-2-yl)pentanoic acid] | 2.1 to 20 nM
14 | O=C(O)CCCCc1nc2cc(C(=O)N3CCN(C(=O)c4ccco4)CC3)ccc2nc1-c1ccc(Cl)cc1 [compound 592, 5-(3-(4-chlorophenyl)-7-(4-(furan-2-carbonyl)piperazine-1-carbonyl)quinoxalin-2-yl)pentanoic acid] | 2.1 to 20 nM
15 | CN(Cc1ccccc1)C(=O)c1ccc2nc(-c3ccc(Cl)cc3)c(CCCCC(=O)O)nc2c1 [compound 593, 5-(7-(benzyl(methyl)carbamoyl)-3-(4-chlorophenyl)quinoxalin-2-yl)pentanoic acid] | 0.1 to 2 nM
16 | O=C(O)CCCCc1nc2cc(C(=O)N3CCN(c4ccncc4)CC3)ccc2nc1-c1ccc(Cl)cc1 [compound 594, 5-(3-(4-chlorophenyl)-7-(4-(pyridin-4-yl)piperazine-l-carbonyl)quinoxalin-2-yl)pentanoic acid] | 201 to 700 nM

Row | SMILES | Ki
17 | N#Cc1cccnc1N1CCN(C(=O)c2ccc3nc(-c4ccc(Cl)cc4)c(CCCCC(=O)O)nc3c2)CC1 [compound 595, 5-(3-(4-chlorophenyl)-7-(4-(3-cyanopyridin-2-yl)piperazine-1-carbonyl)quinoxalin-2-yl)pentanoic acid] | 0.1 to 2 nM
18 | O=C(O)CCCCc1nc2cc(C(=O)N3CCN(c4c(Cl)cncc4Cl)CC3)ccc2nc1-c1ccc(Cl)cc1 [compound 596, 5-(3-(4-chlorophenyl)-7-(4-(3,5-dichloropyridin-4-yl)piperazine-1-carbonyl)quinoxalin-2-yl)pentanoic acid] | 0.1 to 2 nM
19 | O=C(O)CCCCc1nc2cc(C(=O)N3CCN(c4cnccn4)CC3)ccc2nc1-c1ccc(Cl)cc1 [compound 597, 5-(3-(4-chlorophenyl)-7-(4-(pyrazin-2-yl)piperazine-1-carbonyl)quinoxalin-2-yl)pentanoic acid] | 2.1 to 20 nM
20 | O=C(O)CCCCc1nc2cc(C(=O)N3CCN4CCCC4C3)ccc2nc1-c1ccc(Cl)cc1 (centres unmarked) [compound 598, 5-(3-(4-chlorophenyl)-7-(octahydropyrrolo[1,2-a]pyrazine-2-carbonyl)quinoxalin-2-yl)pentanoic acid] | 2.1 to 20 nM
21 | O=C(O)CCCCc1nc2cc(C(=O)N3CCN(c4ccc(C(F)(F)F)cn4)CC3)ccc2nc1-c1ccc(Cl)cc1 [compound 599, 5-(3-(4-chlorophenyl)-7-(4-(5-yl)piperazine-1-carbonyl)quinoxalin-2-yl)pentanoic acid] | 0.1 to 2 nM
22 | O=C(O)CCCCc1nc2cc(C(=O)N3CCN(c4ccccc4C(F)(F)F)CC3)ccc2nc1-c1ccc(Cl)cc1 [compound 600, 5-(3-(4-chlorophenyl)-7-(4-(2-(trifluoromethyl)phenyl)piperazine-1-carbonyl)quinoxalin-2-yl)pentanoic acid] | 0.1 to 2 nM
23 | O=C(O)CCCCc1nc2cc(C(=O)N3CCN(c4nccs4)CC3)ccc2nc1-c1ccc(Cl)cc1 [compound 601, 5-(3-(4-chlorophenyl)-7-(4-(thiazol-2-yl)piperazine-1-carbonyl)quinoxalin-2-yl)pentanoic acid] | 2.1 to 20 nM
24 | O=C(O)CCCCc1nc2cc(C(=O)N3CCN(c4nc5ccccc5s4)CC3)ccc2nc1-c1ccc(Cl)cc1 [compound 602, 5-(7-(4-(benzo[d]thiazol-2-yl)piperazine-1-carbonyl)-3-(4-chlorophenyl)quinoxalin-2-yl)pentanoic acid] | 0.1 to 2 nM
25 | O=C(O)CCCCc1nc2cc(C(=O)N3CCc4ccccc4C3)ccc2nc1-c1ccc(Cl)cc1 [compound 603, 5-(3-(4-chlorophenyl)-7-(1,2,3,4-tetrahydroisoquinoline-2-carbonyl)quinoxalin-2-yl)pentanoic acid] | 2.1 to 20 nM
26 | N#CC1(c2ccccc2)CCN(C(=O)c2ccc3nc(-c4ccc(Cl)cc4)c(CCCCC(=O)O)nc3c2)C1 (centres unmarked) [compound 604, 5-(3-(4--chlorophenyl)-7-(3-cyano-3-phenyl-pyrrolidine-1-carbonyl)quinoxalin-2-yl)pentanoic acid] | 0.1 to 2 nM
27 | CS(=O)(=O)N1CCC(NC(=O)c2ccc3nc(-c4ccc(Cl)cc4)c(CCCCC(=O)O)nc3c2)c2ccccc21 (centres unmarked) [compound 605, 5-(3-(4-chlorophenyl)-7-((1-(methylsulfonyl)-1,2,3,4-tetrahydroquinolin-4-yl)carbamoyl)quinoxalin-2-yl)pentanoic acid] | 0.1 to 2 nM
28 | O=C(O)CCCCc1nc2cc(C(=O)N3CC(c4ccc(F)cc4)C3)ccc2nc1-c1ccc(Cl)cc1 [compound 606, 5-(3-(4-chlorophenyl)-7-(3-(4-fluorophenyl)azetidine-1-carbonyl)quinoxalin-2-yl)pentanoic acid] | 2.1 to 20 nM
29 | O=C(O)CCCCc1nc2cc(C(=O)N3Cc4ccccc4C3)ccc2nc1-c1ccc(Cl)cc1 [compound 607, 5-(3-(4-chlorophenyl)-7-(isoindoline-2-carbonyl)quinoxalin-2-yl)pentanoic acid] | 0.1 to 2 nM
30 | O=C(O)CCCCc1nc2cc(C(=O)N3CCc4c([nH]c5ccccc45)C3)ccc2nc1-c1ccc(Cl)cc1 [compound 608, 5-(3-(4-chlorophenyl)-7-(2,3,4,9-tetrahydro-1H-pyrido[3,4-b]indole-2-carbonyl)quinoxalin-2-yl)pentanoic acid] | 2.1 to 20 nM
31 | O=C(O)CCCCc1nc2cc(C(=O)N3CCN(c4ccccc4Cl)CC3)ccc2nc1-c1ccc(Cl)cc1 [compound 609, 5-(3-(4-chlorophenyl)-7-(4-(2-chlorophenyl)piperazine-1-carbonyl)quinoxalin-2-yl)pentanoic acid] | 0.1 to 2 nM
32 | O=C(O)CCCCc1nc2cc(C(=O)N3CCN(c4cccc(C(F)(F)F)c4)CC3)ccc2nc1-c1ccc(Cl)cc1 [compound 610, 5-(3-(4-chlorophenyl)-7-(4-(3-(trifluoromethyl)phenyl)piperazine-1-carbonyl)quinoxalin-2-yl)pentanoic acid] | 0.1 to 2 nM

— patent publication US9469615B2, “Quinoxalines and AZA-quinoxalines as CRTH2 receptor modulators” (Merck Sharp & Dohme Corp., priority 2010, dated 2016)
